# Data: patent US20250140406A1, “CLASSIFYING TUMORS AND PREDICTING RESPONSIVENESS” (Oncocyte Corporation, priority 2022, published 2025)
# System: cancer cell lines classified IM, MSL, M
# Test: PRISM screen compound sensitivity correlated with IM, MSL and M subtype of cell lines (101 gene signature)
# Type: cell-based
# Conditions: not given
row,Compound,TNBCType train
1,COCC(O)Cn1ccnc1[N+](=O)[O-] (centres unmarked) [misonidazole],MSL
2,Cc1nc2n(c(=O)c1CCN1CCC(c3noc4cc(F)ccc34)CC1)CCCC2 [risperidone],MSL

# Same assay, conditions: subtype (IM, MSL or M) assigned to the compound by negative correlation of PRISM sensitivity with subtype; training cell set (371 cell lines), 101 gene signature
row,Compound,TNBCType train
1,Cc1cc(Nc2cc(N3CCN(C)CC3)nc(/C=C/c3ccccc3)n2)n[nH]1 [ENMD-2076],MSL
2,CN(C)c1cccc(-c2c3c(=O)n(-c4ccccc4Cl)[nH]c3cc(=O)n2C)c1 [GKT137831],MSL
3,CCCCOc1nc(N)c2c(n1)N(Cc1cccc(CN3CCCC3)c1)CC(=O)N2 [GS-9620],MSL
4,O=C(O)CCc1ccc(NCc2cccc(Oc3ccccc3)c2)cc1 [GW-9508],MSL
5,CC(C)NC(=O)COc1cccc(-c2nc(Nc3ccc4[nH]ncc4c3)c3ccccc3n2)c1 [KD025],MSL
6,Nc1cc(F)ccc1NC(=O)/C=C/c1cnn(C/C=C/c2ccccc2)c1 [RGFP966],MSL
7,Cc1ccc(-c2ccc(C)cn2)nc1 [abametapir],MSL
8,CC1(C)S[C@@H]2[C@H](NC(=O)[C@H](N)c3ccccc3)C(=O)N2[C@H]1C(=O)O [ampicillin],MSL
9,Nc1ccn([C@H]2CO[C@@H](CO)S2)c(=O)n1 [apricitabine],MSL
10,CCN(CC)CCn1c(=O)c(Cc2ccc(OC)cc2)nc2ccccc21 [caroverine],MSL
11,N=C(N)N1CCc2ccccc2C1 [debrisoquin],MSL
12,NS(=O)(=O)c1cc(Cl)c(Cl)c(S(N)(=O)=O)c1 [diclofenamide],MSL
13,COc1cc(OC)cc(N(CCNC(C)C)c2ccc3ncc(-c4cnn(C)c4)nc3c2)c1 [erdafitinib],MSL
14,COc1cc([C@@H]2c3cc4c(cc3[C@@H](O[C@@H]3O[C@@H]5CO[C@@H](C)O[C@H]5[C@H](O)[C@H]3O)[C@H]3COC(=O)[C@H]23)OCO4)cc(OC)c1OP(=O)(O)O [etoposide-phosphate],MSL
15,Oc1ccc(C2=Cc3ccc(O)cc3OC2)cc1 [idronoxil],MSL
16,COc1c2occc2c(OC)c2c(=O)cc(C)oc12 [khellin],MSL
17,CCCOc1ccc(S(=O)(=O)N2CCN(CCO)CC2)cc1-c1nc2c(CCC)cn(CC)c2c(=O)[nH]1 [mirodenafil],MSL
18,COc1cccc(C(=O)CCN[C@@H](C)[C@H](O)c2ccccc2)c1 [oxyfedrine],MSL
19,CC[C@@H]1/C=C(\C)C[C@H](C)C[C@H](OC)[C@H]2O[C@@](O)(C(=O)C(=O)N3CCCC[C@H]3C(=O)O[C@H](/C(C)=C/[C@@H]3CC[C@H](Cl)[C@H](OC)C3)[C@H](C)[C@@H](O)CC1=O)[C@H](C)C[C@@H]2OC [pimecrolimus],MSL
20,O=C(O)C[C@H](O)C[C@H](O)/C=C/c1c(C2CC2)nc2ccccc2c1-c1ccc(F)cc1 [pitavastatin],MSL
21,C=Cc1cc(O)cc2nc(-c3ccc(O)c(F)c3)oc12 [prinaberel],MSL
22,CCn1nc(C)c2c1C(c1ccccc1)=NCC(=O)N2 [ripazepam],MSL
23,O=C1C=CC[C@@H]2[C@H]3CCCN4CCC[C@@H](CN12)[C@@H]34 [sophocarpine],MSL

# Same assay, conditions: subtype (IM, MSL or M) the PRISM compound sensitivity is associated with; training cell set (371 cell lines); 101 gene signature
row,Compound,TNBCType train
1,CN1CC2c3ccccc3Oc3ccc(Cl)cc3C2C1 (centres unmarked) [asenapine],MSL
2,O=C(/C=C/c1ccc(O)c(O)c1)OCCc1ccccc1 [caffeic-acid-phenethyl-ester],MSL
3,O=C(Cn1ccnc1[N+](=O)[O-])NCCO [etanidazole],MSL
4,CCOC(=O)c1ncn2c1CN(C)C(=O)c1cc(F)ccc1-2 [flumazenil],MSL
5,O=P(O)(O)CP(=O)(O)O [medronic-acid],MSL
6,CC[C@H](C)C(=O)O[C@H]1CCC=C2C=C[C@H](C)[C@H](CC[C@@H]3C[C@@H](O)CC(=O)O3)[C@H]21 [mevastatin],MSL

# Same assay, conditions: subtype (IM, MSL or M) with which PRISM compound sensitivity is negatively correlated; training cell set, 101 gene signature
row,Compound,TNBCType train
1,Cc1ccc2c(=O)c3cccc(CC(=O)O)c3oc2c1C [ASA-404],MSL
2,O=C(Nc1ccccc1F)N[C@H]1N=C(c2ccccc2)c2ccccc2NC1=O [RSV604],MSL
3,OC1CCC(Nc2nc(-c3ccccc3)nc3[nH]ccc23)CC1 (centres unmarked) [SLV-320],MSL
4,CCOC(=O)COc1ccc2c(c1)C[C@@H](NC[C@H](O)c1cccc(Cl)c1)CC2 [amibegron],MSL
5,CC(=O)OCC1=C(C(=O)O)N2C(=O)[C@@H](NC(=O)Cc3cccs3)[C@H]2SC1 [cephalothin],MSL
6,CC(C)NC(=N)NC(=N)Nc1ccc(Cl)c(Cl)c1 [chlorproguanil],MSL
7,N#CCC(=O)NN [cyacetacide],MSL
8,Cc1ccc2c(c1)[C@]13CCCC[C@@H]1[C@H](C2)N(C)CC3 [dimemorfan],MSL
9,N[C@H](C(=O)O)[C@H](O)c1ccc(O)c(O)c1 [droxidopa],MSL
10,CSc1ccc(C(=O)c2[nH]c(=O)[nH]c2C)cc1 [enoximone],MSL
11,CC1=C(CC(=O)O)c2cc(F)ccc2/C1=C\c1ccc(S(C)(=O)=O)cc1 [exisulind],MSL
12,O=C(O)c1ccccc1OP(=O)(O)O [fosfosal],MSL
13,O=C1NC(c2ccccc2)(c2ccccc2)C(=O)N1COP(=O)(O)O [fosphenytoin],MSL
14,CC(C)(CO)CCCCCCC(C)(C)CO [gemcadiol],MSL
15,COc1cc2nccc(Oc3ccc(NC(=O)NC4CC4)c(Cl)c3)c2cc1C(N)=O [lenvatinib],MSL
16,CCN1CCC[C@H]1CNC(=O)c1cc(S(N)(=O)=O)ccc1OC [levosulpiride],MSL
17,CNC(=O)c1cccc2cc(Oc3ccnc4cc(OCC5(N)CC5)c(OC)cc34)ccc12 [lucitanib],MSL
18,COC(=O)c1ccc2c(c1)NC(=O)/C2=C(\Nc1ccc(N(C)C(=O)CN2CCN(C)CC2)cc1)c1ccccc1 [nintedanib],MSL
19,CC(C)Oc1ccc(-c2nc(-c3cccc4c3CC[C@@H]4NCCO)no2)cc1C#N [ozanimod],MSL
20,Cc1cn2nc([C@@H]3CCCCN3C(=O)c3cc(Cl)ccc3NS(C)(=O)=O)cc2nc1N1CC[C@H](N)C1 [presatovir],MSL
21,Cc1ccc2c(-c3ccccc3)nc(=O)n(C(C)C)c2c1 [proquazone],MSL
22,O=C(N[C@H]1CN2CCC1CC2)c1cnc2ccsc2c1O [pumosetrag],MSL
23,C[C@]12CC[C@H](O)C[C@H]1CC[C@@H]1[C@@H]2CC[C@]2(C)[C@@H](c3ccc(=O)oc3)C[C@H]3O[C@]132 [resibufogenin],MSL
24,C[C@H]1CNCCCN1S(=O)(=O)c1cccc2cncc(F)c12 [ripasudil],MSL
25,CC(C)N(CCCCOCC(=O)NS(C)(=O)=O)c1cnc(-c2ccccc2)c(-c2ccccc2)n1 [selexipag],MSL
26,CC[C@H]1OC(=O)[C@@](C)(F)C(=O)[C@H](C)[C@@H](O[C@@H]2O[C@H](C)C[C@H](N(C)C)[C@H]2O)[C@](C)(OC)C[C@@H](C)C(=O)[C@H](C)[C@H]2N(CCCCn3cc(-c4cccc(N)c4)nn3)C(=O)O[C@]12C [solithromycin],MSL

# Same assay, conditions: subtype (IM, MSL or M) with which compound sensitivity is negatively correlated; training cell set (371 cell lines), 101 gene signature
row,Compound,TNBCType train
1,CC1=C(C(=O)Nc2cc3cn[nH]c3cc2F)C(c2ccc(C(F)(F)F)cc2)CC(=O)N1 (centres unmarked) [GSK429286A],MSL
2,CC(O)c1cc(C(=O)N[C@@H](C)Cn2ccc(-c3ccc(C#N)c(Cl)c3)n2)[nH]n1 (some centres unmarked) [ODM-201],MSL
3,CC(CC(C(N)=O)(c1ccccc1)c1ccccc1)N(C)C (centres unmarked) [aminopentamide],MSL
4,CCOC(=O)OC(C)OC(=O)[C@@H]1N2C(=O)[C@@H](NC(=O)[C@H](N)c3ccccc3)[C@H]2SC1(C)C (some centres unmarked) [bacampicillin],MSL
5,O=C(/C=C/c1ccc(O)c(O)c1)c1ccc(O)cc1O [butein],MSL
6,CC(C)NCC(O)COc1cccc2[nH]c3ccccc3c12 (centres unmarked) [carazolol],MSL
7,Oc1c(Cl)cc(Cl)c2cccnc12 [chloroxine],MSL
8,CC(C)(Oc1ccc(Cl)cc1)C(=O)O [clofibric-acid],MSL
9,O=C1c2cccc(O)c2C(=O)c2c(O)cccc21 [dantron],MSL
10,CC[C@H](CC[C@@H](C)[C@H]1CC[C@H]2[C@@H]3CC=C4C[C@@H](O[C@@H]5O[C@H](CO)[C@@H](O)[C@H](O)[C@H]5O)CC[C@]4(C)[C@H]3CC[C@]12C)C(C)C [daucosterol],MSL
11,O=C(OCC(O)CO)c1ccccc1Nc1ccnc2c(C(F)(F)F)cccc12 (centres unmarked) [floctafenine],MSL
12,O=c1[nH]cnc2nc[nH]c12 [hypoxanthine],MSL
13,C[C@@H](c1nc(-c2ccc(C#N)cc2)cs1)[C@](O)(Cn1cncn1)c1cc(F)ccc1F [isavuconazole],MSL
14,CC(C(=O)O)c1cccc(C(=O)c2ccccc2)c1 (centres unmarked) [ketoprofen],MSL
15,Cc1[nH]cnc1-c1ccc(Cl)cc1 [lofemizole],MSL
16,CCCCN1CCC(CNC(=O)c2c3n(c4ccccc24)CCCO3)CC1 [piboserod],MSL
17,C[C@@H](c1nc(-c2ccc(C#N)cc2)cs1)[C@](O)(Cn1cncn1)c1ccc(F)cc1F [ravuconazole],MSL
18,C=C[C@](C)(O)CC[C@@H]1[C@@]2(C)CCCC(C)(C)[C@@H]2CC[C@@]1(C)O [sclareol],MSL

# Same assay, conditions: subtype (IM, MSL, M) with which compound sensitivity correlates; test set
row,Compound,TNBCType test
1,O=C(Nc1ccccc1F)N[C@H]1N=C(c2ccccc2)c2ccccc2NC1=O [RSV604],MSL
2,COc1cc(OC)cc(N(CCNC(C)C)c2ccc3ncc(-c4cnn(C)c4)nc3c2)c1 [erdafitinib],MSL/M
3,O=c1[nH]c2ccccc2n1C1CCN(CCOc2ccccc2)CC1 [oxiperomide],MSL/M
4,C[C@]12CC[C@H](O)C[C@H]1CC[C@@H]1[C@@H]2CC[C@]2(C)[C@@H](c3ccc(=O)oc3)C[C@H]3O[C@]132 [resibufogenin],MSL

# Same assay, conditions: subtype (IM, MSL, M) with which compound sensitivity correlates; training set
row,Compound,TNBCType train
1,O=C(Nc1ccccc1F)N[C@H]1N=C(c2ccccc2)c2ccccc2NC1=O [RSV604],MSL
2,COc1cc(OC)cc(N(CCNC(C)C)c2ccc3ncc(-c4cnn(C)c4)nc3c2)c1 [erdafitinib],MSL
3,C[C@]12CC[C@H](O)C[C@H]1CC[C@@H]1[C@@H]2CC[C@]2(C)[C@@H](c3ccc(=O)oc3)C[C@H]3O[C@]132 [resibufogenin],MSL

# Same assay, conditions: subtype with which compound sensitivity correlates; test cell lines
row,Compound,TNBCType test
1,COc1cc(OC)cc(N(CCNC(C)C)c2ccc3ncc(-c4cnn(C)c4)nc3c2)c1 [erdafitinib],MSL/M
2,CC[C@H](C)C(=O)O[C@H]1CCC=C2C=C[C@H](C)[C@H](CC[C@@H]3C[C@@H](O)CC(=O)O3)[C@H]21 [mevastatin],MSL

# Same assay, conditions: subtype with which compound sensitivity correlates; training cell lines
row,Compound,TNBCType train
1,COc1cc(OC)cc(N(CCNC(C)C)c2ccc3ncc(-c4cnn(C)c4)nc3c2)c1 [erdafitinib],MSL
2,CC[C@H](C)C(=O)O[C@H]1CCC=C2C=C[C@H](C)[C@H](CC[C@@H]3C[C@@H](O)CC(=O)O3)[C@H]21 [mevastatin],MSL
